Experimental findings from US5712139A, “Pyranose oxidase, pyranose oxidase gene, novel recombinant DNA and process for producing pyranose oxidase” (Kikkoman Corporation, priority 1994, dated 1998) are described below.

The target in one test is T1, pyranose oxidase (Trametes versicolor, UniProt P79076).
T1 construct: purified, about 290 kDa by gel filtration; mature N-terminus […] in fungal enzyme; pPRME18 is the alternative N-terminally shortened construct
Description: Substrate specificity of pyranose oxidase (hydrogen peroxide / 4-aminoantipyrine-phenol-peroxidase colour reaction). As to conditions: pH 7. The format is biochemical, Coriolus versicolor. Here is the method: 3.0 ml of an enzyme-containing solution consisting of 1.0 ml of 0.1M Tris-HC1 buffer, pH 7.0, 0.2 ml of a color-producing solution (prepared by adding 2000 U peroxidase to 100 ml of 0.1 M Tris-HCl buffer, pH 7.0 containing 10 mM 4-aminoantipyrine and 10 mM phenol), 0.1 ml of 1M glucose, 0.1 ml pyranose oxidase solution and 1.6 ml water was allowed to react at 37° C., and the increase in absorbance at 500 nm was determined with U2000 double beam spectrophotometer (manufactured by Hitachi, Ltd.).
One unit of enzyme activity is defined as the amount of enzyme which causes formation of 1 μmol of hydrogen peroxide per minute at 37° C., pH 7.0. The calculation of […] was carried out using the following equation assuming that the molecular extinction coefficient of the quinoimine pigment formed under the above conditions is 5.3 x 10^3 : Enzyme activity: (ΔA500 /5.3)×(3.0/0.1)×dilution degree of enzyme.
For examination of the substrate specificity of the present enzyme, each of sugar solutions (0.1 M) shown in Table 1 was used in place of glucose in the method described in (1) above. 2.5 units of pyranose oxidase were added to the reaction solution. The activity for each substrate is shown in relative activity that is expressed relative to that (100%) for the substrate glucose.
As to galactose, the “relative activity (%)” value stood at 3.2%.
Take mannose: the “relative activity (%)” value is 0.2%.

The test is the same for the next values; noted with them: pH 7, read-out: relative activity (%).
With `O=C(CO)[C@@H](O)[C@H](O)[C@@H](O)CO` [L-sorbose], the activity at 3300 µM came to 9%.

Staying with this test, now noted: substrate 3.3 mM; relative to glucose = 100%; 2.5 units of pyranose oxidase; 37° C., pH 7.0.
For the molecule `O=C(O)[C@H](O)[C@@H](O)[C@H](O)[C@H](O)CO` [gluconic acid], the “relative activity (%)” value came to 0.4%.
In the case of `OC[C@H]1O[C@H](O[C@H]2[C@H](O)[C@@H](O)[C@H](O)O[C@@H]2CO)[C@H](O)[C@@H](O)[C@@H]1O` [maltose], the “relative activity (%)” value was determined as 1.1%.
Take `OC[C@H]1O[C@H](O[C@H]2O[C@H](CO)[C@@H](O)[C@H](O)[C@H]2O)[C@H](O)[C@@H](O)[C@@H]1O` [trehalose]: the “relative activity (%)” value amounted to 0.1%.

Staying with this test, now noted: substrate 3.3 mM; relative to glucose = 100%; 2.5 units of pyranose oxidase; 37° C., pH 7.0; read-out: relative activity (%).
Consider `OC[C@H]1OC[C@H](O)[C@@H](O)[C@@H]1O` [1,5-anhydro-D-glucitol], for which the activity at 3300 µM amounted to 14.2%.
Turning to `OC[C@H]1OC(O)C[C@@H](O)[C@@H]1O` (stereo partly drawn) [2-deoxy-D-glycose], the activity at 3300 µM was determined as 1.6%.
The same measure, in the same setting: to `O=C1O[C@H](CO)[C@@H](O)[C@H](O)[C@H]1O` [D-gluconic acidδ lactone] belongs 0.4%; to `OC[C@@H](O)[C@@H](O)[C@H](O)[C@@H](O)CO` [D-sorbitol], 0%.
For the molecule `OC1OC[C@@H](O)[C@H](O)[C@H]1O` (stereo partly drawn) [D-xylose], the activity at 3300 µM was 6.5%.
Take `C[C@@H]1OC(O)[C@H](O)[C@H](O)[C@H]1O` (stereo partly drawn) [L-rhamnose]: the activity at 3300 µM is 0.1%.
As to `CC(=O)N[C@H]1C(O)O[C@H](CO)[C@@H](O)[C@@H]1O` (stereo partly drawn) [N-acetyl-D-glucosamine], the activity at 3300 µM was found to be 0%.
Regarding `OC[C@H]1O[C@H](OC[C@H]2O[C@H](O[C@]3(CO)O[C@H](CO)[C@@H](O)[C@@H]3O)[C@H](O)[C@@H](O)[C@@H]2O)[C@H](O)[C@@H](O)[C@H]1O` [raffinose], the activity at 3300 µM worked out at 0%.
Still for that read-out and setting: to `OC[C@H]1O[C@@](CO)(O[C@H]2O[C@H](CO)[C@@H](O)[C@H](O)[C@H]2O)[C@@H](O)[C@@H]1O` [sucrose] belongs 0%; to `OC[C@@H](O)[C@H](O)[C@@H](O)CO` [xylitol], 0%.

Staying with this test, now noted: summary of Table 1.
For the molecule `OC[C@H]1OC[C@H](O)[C@@H](O)[C@@H]1O` [1,5-anhydro-D-glucitol], the “substrate specificity in words” value was “acts on”.
On to `OC1OC[C@@H](O)[C@H](O)[C@H]1O` (stereo partly drawn) [D-xylose], for which the “substrate specificity in words” value was “acts on”.
On to galactose, for which the “substrate specificity in words” value is reported as “acts on”.
